Experimental data from the METLIN SMRT retention time set (Domingo-Almenara et al. 2019).

Assay: gradient 5% acetonitrile 3 min, to 50% in 2 min, to 85% in 15 min, held 3 min, 100 µL/min
Settings: column: Zorbax Extend-C18 2.1 x 50 mm; eluents: water / acetonitrile, 0.1% formic acid
How it was run: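 Values are retention times taken from adduct peaks that software picked and an analyst inspected. The pure standards were run as mixtures of ~100 molecules on HPLC linked to a quadrupole time-of-flight mass spectrometer, in positive and negative ionization mode. A Zorbax Extend-C18 column (2.1 × 50 mm, 1.8 μm) was used at 100 μL/min with water and acetonitrile, each including 0.1% formic acid.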

Row | SMILES | RP-LC retention time [s]
1 | O=C1CCN(C(=O)c2ccoc2)CCCCCCN1 | 617
2 | CCCS(=O)(=O)c1nc2ccc(NS(=O)(=O)c3ccc(F)cc3Cl)cc2s1 | 973
3 | CCOc1ccc(-n2c(=O)c3sccc3n(Cc3nc(-c4ccc(CC)cc4)no3)c2=O)cc1 | 1170
4 | O=c1ccc(-c2cccc(Cl)c2)nn1CCc1nc(-c2cccnc2)no1 | 805
5 | CCCC1(CO)CCCN1C(=O)c1nn(C)c2ccccc12 (stereo not drawn) | 857
6 | CCCN(CC1CCOC1)C(=O)Nc1cc(F)ccc1F (stereo not drawn) | 844
7 | CCC(C)OC(=O)C1=C(C)NC(=O)NC1c1ccc(O)c(OC)c1 (stereo not drawn) | 677
8 | N#Cc1cccc(Cn2nc(-c3nc(-c4ccc(Cl)cc4)no3)ccc2=O)c1 | 1100
9 | CCC(C)C(=O)N1CCc2[nH]nc(C(=O)NCCCc3ccccc3)c2C1 (stereo not drawn) | 781
10 | CCn1nccc1-c1cccc(-c2noc(-c3ccc(C)c(C)c3)n2)c1 | 1420
11 | CCC1CN(C(=O)N2CCC(C(=O)N3CCN(C(=O)c4ccco4)CC3)CC2)c2ccccc2O1 (stereo not drawn) | 751
12 | CCCC(C)NC(=O)c1ccc2c(c1)CCCN2S(=O)(=O)CC (stereo not drawn) | 872
13 | CCOC(=O)c1c[nH]c2ccc(NC(C)=O)cc2c1=O | 557
14 | COc1ccc(C2CC(=O)N(c3ccc(C)c(Cl)c3)C(=O)C2)cc1 | 1010
15 | Cc1ccccc1-c1cc(N2CCN(C(=O)NCC3CCCO3)CC2)ncn1 (stereo not drawn) | 600
16 | Cn1cc(-c2cc3n(n2)CCCN3C(=O)CCC(=O)NCc2ccccc2)c2ccccc21 | 804
17 | O=C(NCc1cccc(C(F)(F)F)c1)C1(CCO)CCN(c2ncccn2)C1 (stereo not drawn) | 669
18 | CCOc1ccc(-c2csc(Cc3nc(-c4ccc(F)cc4)no3)n2)cc1 | 1250
19 | COc1cc(OC)c(NC(=O)Cn2c(=O)n(-c3ccc(C)cc3)c(=O)c3c2cc(C)n3C)cc1Cl | 904
20 | O=C(c1cccnc1)N1CCC2(CC1)Nc1cc(F)ccc1-n1cccc12 | 792
21 | O=C(c1ccc(Cl)cc1)N1CCN(c2cc(-c3cccs3)[nH]n2)CC1 | 809
22 | CCS(=O)(=O)N1CCCc2cc(C(=O)NC)ccc21 | 657

Row | SMILES | RP-LC retention time [s]
23 | COc1ccc(Cl)cc1C(=O)N1CCN(c2cc(-c3cccs3)[nH]n2)CC1 | 812
24 | CC(=O)N1CCc2cc(N3CC(C(=O)Nc4ccc(F)cc4F)CC3=O)ccc21 (stereo not drawn) | 688
25 | Cc1c(S(=O)(=O)NCC(c2cccnc2)c2cn(C)c3ccccc23)cnn1C(F)F (stereo not drawn) | 698
26 | CCn1cc(C(=O)NCc2ccccc2C(F)(F)F)c2cccnc21 | 863
27 | CCS(=O)(=O)N1CC(=O)N(c2cccc(F)c2)C(C)(C(=O)NCc2ccccc2)C1 (stereo not drawn) | 779
28 | O=C(Cc1ccsc1)NC1CCN(c2ccc(=O)n(CCOc3ccccc3)n2)C1 (stereo not drawn) | 750
29 | Cc1csc(-c2cc(S(=O)(=O)NCCCc3ccccc3)c(C)s2)n1 | 1080
30 | Cc1ccc(Nc2nc(C)cc(N3CCN(S(=O)(=O)c4cc(F)ccc4C)CC3)n2)cc1 | 823
31 | COCCOc1ccc2c(n1)CCN(C(=O)Nc1cc(C)ccc1C)C2 | 873
32 | Cc1ccccc1NC(=O)CSc1nc(=O)n(CCN(C)C)c2c1CCC2 | 610
33 | O=C(CN1CC=C(c2cnn(-c3ccccc3)c2)CC1)N1CCC(N2CCCCC2)CC1 | 573
34 | CCn1nccc1-c1cccc(-c2noc(C3CC(=O)N(c4ccc(C)c(C)c4)C3)n2)c1 (stereo not drawn) | 1080
35 | Cc1ccc(NS(=O)(=O)c2cc3n(c2)CCN(C)C3=O)c(F)c1 | 1070
36 | CCOC(=O)CNC(=O)NCc1cccn1Cc1ccccc1F | 772
37 | COc1ccc(-c2csc(NC(=O)c3cc(OC)c(OC)c(OC)c3)n2)cc1 | 1030
38 | COc1ccc(OC)c(NC(=O)Cc2cccn2-c2ccc(Cl)cc2)c1 | 1080
39 | O=C(Cn1ccn(-c2cccc(Cl)c2)c(=O)c1=O)NCc1ccco1 | 641
40 | CCN1C(=O)COc2ccc(-c3noc(-c4ccc(Br)cc4)n3)cc21 | 1240
41 | CCN1C[C@H](C)n2c(c(O)c3c(=O)n(Cc4ccc(F)c(Cl)c4)nc(C(=O)NC)c32)C1=O | 871
42 | COC(=O)c1cnn(C(=O)c2ccc(OC)cc2)c1N | 829
43 | O=C(Nc1nc(-c2cc([N+](=O)[O-])cs2)cs1)c1coc2ccccc2c1=O | 1110
44 | C=Cc1ccc(Cn2nc3c(S(=O)(=O)N4CCN(c5ccc(F)cc5)CC4)cccn3c2=O)cc1 | 1010

Row | SMILES | RP-LC retention time [s]
45 | CC1(C)CC(=O)C2=C(C1)Nc1ccccc1N(CC(=O)Nc1cccc(F)c1)C2c1ccco1 (stereo not drawn) | 924
46 | COc1ccc2nc(-c3ccc(Cl)cc3)cc(C(=O)O)c2c1 | 1090
47 | CCCCC(=O)N1CC(F)(F)C[C@H]1c1nnc(-c2cnccn2)o1 | 715
48 | O=C(c1ccc(N2CCCCS2(=O)=O)cc1)N1CCN(C(=O)c2ccco2)CC1 | 609
49 | COc1ccc(CCNC(=O)CN2C(=O)CCc3cc(Br)ccc32)cc1OC | 800
50 | COc1ccc(NC(=O)CN2C(=O)C(C)(C)c3ccccc32)cc1 | 826
51 | Cc1ncc2c(n1)CCCN(CC(=O)NCC1CC1)C2=O | 582
52 | O=C(c1cnn(-c2ccccc2)n1)N1CCCC(COCc2ccccc2)C1 (stereo not drawn) | 1110
53 | Fc1ccc(-c2n[nH]c(C3CCN(C4CCCC4)CC3)n2)cc1 | 611
54 | Cc1nc(-c2cc(S(=O)(=O)N(C)C3CCCCC3)cn2C)sc1C(=O)N1CCCC1 | 959
55 | O=C(NCc1ccc(F)cc1Cl)c1cn2ccccc2n1 | 708
56 | O=C(Nc1ccc(-c2nnc3n2CCCC3)cc1)c1ccc(Cl)cc1 | 724
57 | CC(C)n1cc2cc(C(=O)N3CCN(Cc4ccc5c(c4)OCO5)CC3)sc2c1 | 696
58 | Cc1ccc(C(=O)Nc2cnn(-c3ncncc3N3CCC(C)CC3)c2)s1 | 909
59 | Cc1c(C(=O)NC2CC2)cnn1-c1cc(-c2nc(C(C)C)no2)ccn1 | 940
60 | CCNC(=O)c1sc2nc(-c3cccc(F)c3)c(NCCCOC)n2c1C | 844
61 | COc1cc(C(=O)NCC(c2ccc3c(c2)OCO3)N2CCN(C)CC2)cc(OC)c1OC (stereo not drawn) | 610
62 | COCCNC(=O)Cn1c(CO)cnc1SCC(=O)Nc1ccc2c(c1)OCCO2 | 554
63 | O=c1ccc(N2CCCN(S(=O)(=O)c3ccc(F)cc3)CC2)nn1-c1ccc(Cl)cc1 | 926
64 | NS(=O)(=O)c1ccc(NC(=O)CN2C(=O)S/C(=C\C=C\c3ccccc3)C2=O)cc1 | 808
65 | COc1ccc(C(O)CN2CCN(C3CCCCC3)CC2)cc1OC (stereo not drawn) | 541
66 | CCC(=O)Nc1ccc(-n2cnc(C(=O)NCc3ccc(F)cc3Cl)c2)nc1 | 762

Row | SMILES | RP-LC retention time [s]
67 | Cc1cc(S(=O)(=O)[C@H]2CS(=O)(=O)C[C@@H]2N2CCN(Cc3ccccc3)CC2)ccc1F | 678
68 | COc1cc(OC)c(NC(=O)N2CCc3nc[nH]c3C2)cc1Cl | 583
69 | CNC(=O)C1CCCN(c2nc3ncn(CC(=O)NCCC4=CCCCC4)c(=O)c3s2)C1 (stereo not drawn) | 685
70 | C[C@H](CSC(=O)c1ccccc1)C(=O)N1c2ccccc2C[C@H]1C(=O)O | 877
71 | COc1nc2ccccc2nc1N1CCCC(C(=O)Nc2cccc(Cl)c2)C1 (stereo not drawn) | 1220
72 | COc1ccc(-c2nnc(-c3ccccc3)o2)cc1S(=O)(=O)N1CCC(C)CC1 | 1090
73 | CC(C)Oc1ccccc1CN1C[C@@H](CO)[C@H](c2ccncc2)C1 | 569
74 | CC(C)NC(=O)N1CCCC(c2cccc(C(=O)NCCN3CCCC3)c2)C1 (stereo not drawn) | 862
75 | Cc1cc(Cl)ccc1NC(=O)C1CCCN(c2nnc(C)c3c(C)n(-c4ccccc4)nc23)C1 (stereo not drawn) | 803
76 | O=C(Nc1ccc(C(=O)NCCCN2CCN(C3CCCCC3)CC2)cc1)C1=CSCCO1 | 579
77 | O=C1CCN(C(=O)c2cccs2)CCCC(CO)CCN1 (stereo not drawn) | 581
78 | CCc1ccc2c(C)nc(NC3=NC(C)(C)C=C(C)N3)nc2c1 | 636
79 | CC1CCN(CCNC(=O)c2nnc(-c3ccc(S(=O)(=O)N(C)C)cc3)o2)CC1 | 606
80 | Cc1cc(C(=O)NCC2CCN(C(=O)NC(C)(C)C)CC2)no1 | 649
81 | COc1cc(OC)cc(-c2noc(CCn3nc(-c4cccc(Cl)c4)ccc3=O)n2)c1 | 1040
82 | CCc1nn2c(nnc3c(=O)n(CCc4c[nH]c5ccccc45)ccc32)c1-c1ccccc1 | 1010
83 | CCCOc1ccc(C2NC(=O)NC(C)=C2C(=O)OCC(F)(F)F)cc1OC (stereo not drawn) | 808
84 | CCOC(=O)c1c(C)oc2ncnc(Nc3ccc(OC)c(Cl)c3)c12 | 1270
85 | O=C(NCCc1ccc(Cl)cc1)C1CCN(C(=O)C2Sc3ccccc3NC2=O)CC1 (stereo not drawn) | 774
86 | O=C(Nc1ccccc1C(F)(F)F)C1CCCN(c2ccc(=O)n(-c3cccc(Cl)c3)n2)C1 (stereo not drawn) | 971
87 | CCCOc1ccc(C2NCCc3c2[nH]c2ccccc32)cc1OC (stereo not drawn) | 642
88 | CCOc1ccc(N2CC(c3nnc(NC(=O)c4ccc(Br)cc4)o3)CC2=O)cc1 (stereo not drawn) | 805
